According to patent US11389427B2, “Compositions and methods of treating cardiac hypertrophy and heart failure” (CASE WESTERN RESERVE UNIVERSITY, priority 2017, dated 2022):

Legend:
[1] = tested on: human induced pluripotent stem cell-differentiated cardiomyocytes (iPS-CM); test: Endothelin-1-induced hypertrophic response in human iPS-differentiated cardiomyocytes; format: cell-based; settings: SR9009 pretreatment, ET-1 (10 nM)
Protocol: We purchased human induced pluripotent stem cell-differentiated cardiomyocytes from Cellular Dynamics (iCell). We followed manufacturer's protocol and measured NPPB expression 24 hr after ET-1 (10 nM, Sigma-Aldrich) induction.
For tissue RNA, a 10-20 mg piece of mouse heart at apex was preserved in RNA Later stabilization reagent (Qiagen) followed by mechanical disruption/homogenization in Trizol (Life Technologies) on a TissueLyser (Qiagen) using stainless steel beads (Qiagen). RNA was purified from the aqueous phase using the miRNAeasy kit (Qiagen) following manufacturer's instructions. For cellular samples, total RNA from NRVM was isolated using the High Pure RNA isolation kit (Roche Diagnostics) with on-column DNAase treatment according to manufacturer's directions. […] Relative expression was calculated using the ΔΔCt-method with normalization to Ppib (Cyclophilin-B). […]
We induced cellular hypertrophic response in human induced pluripotent stem cell-differentiated cardiomyocytes with endothelin-1 (ET-1) and monitored NPPB (BNP) expression with SR9009 or Veh pretreatment.

[2] = tested on: C57BL/6J mice, 28-gauge TAC heart failure model; test: Heart failure model, 28-gauge TAC with cross-over, 11-week followup; format: in vivo, mouse
Protocol: (§1) SR9009 was synthesized and purified in the laboratory of Thomas Burris (Department of Pharmacology and Physiology, St. Louis University, St. Louis, Mo., USA). For in vitro experiments, SR9009 was dissolved in DMSO and administered at […]; GSK4112 (EMD Millipore) was dissolved in DMSO and administered at […] using an equal volume of DMSO as control. For in vivo experiments, SR9009 was dissolved in 5% DMSO/10% Cremaphor EL (Sigma-Aldrich, C5135)/85% PBS in a working solution at 10 mg/ml. Micewere injected at a dose of 100 mg/kg/day given i.p. once daily at zeitgeber time 8 (ZT8). The diluent without SR9009 of the same volume was used as control.
(§2) All mice were C57BL/6J littermate males aged 9 weeks at the start of the experiment. Mice were anesthetized with ketamine/xylazine, mechanically ventilated (Harvard apparatus), and subjected to thoracotomy. The aortic arch was constricted between the left and right carotid arteries using a 7.0 silk suture and a 27- or 28-gauge needle as previously described (20). Chemicals were obtained from Sigma-Aldrich.
For transthoracic echocardiography, mice were anesthetized with 1% inhalational isofluorane and imaged using the Vevo 770 High Resolution Imaging System (Visual Sonics Inc.) and the RMV-707B 30 MHz probe. Measurements were obtained from M-mode sampling, and integrated EKVimages were taken in the LV short axis at the mid-papillary level. […]

[3] = tested on: neonatal rat ventricular myocytes (NRVMs); test: Phenylephrine-induced (PE-induced) cardiomyocyte hypertrophy in NRVMs; format: cell-based; set-up: PE-induced cellular hypertrophy (cell size) / PE-induced expression of cellular stress markers (qPCR of Nppa and Nppb): unit of the concentration uncertain
Protocol: as §1
NRVMs and CFs were isolated from the hearts of 2-day-old Sprague-Dawley rat pups (Charles River Laboratories). The cells were differentially preplated for 1.5 hr. The nonattached cells were collected as NRVM and replated with 48 hr exposure to BrdU to suppress nonmyocytes. The attached cells were passaged 2-3 times to obtain CFs. NRVMs were initially plated in growth medium (DMEM supplemented with 10% FBS, 100 U/ml penicillin-streptomycin, and 2 mM L-glutamine) for 48 hr and maintained in serum-free media thereafter (DMEM supplemented with 1% insulin-transferrin-selenium liquid media supplement [Sigma-Aldrich, 13146], 100 U/ml penicillin-streptomycin). For hypertrophic stimulation, NRVM were incubated with SR9009 or GSK4112 versus DMSO for 24 hr, followed by stimulation with PE (100 μM) for the indicated time. […]
NRVM were plated on glass coverslips in 6-well dishes at a density of 1×10^5 cells/ml. […] Quantitation of cardiomyocyte cell surface area was performed on anti-actinin-stained cardiomyocytes using fluorescent microscopy and ImagePro software. […]
For tissue RNA, a 10-20 mg piece of mouse heart at apex was preserved in RNA Later stabilization reagent (Qiagen) followed by mechanical disruption/homogenization in Trizol (Life Technologies) on a TissueLyser (Qiagen) using stainless steel beads (Qiagen). […] Relative expression was calculated using the ΔΔCt-method with normalization to Ppib (Cyclophilin-B). […]

mouse heart mitochondria = test: Mitochondria number, morphology and respiration in mouse hearts after TAC; format: in vivo; settings: 10 weeks after TAC, vs Veh
Protocol: The assay was performed using Seahorse (Agilent) and following the manufacturer's published protocol. Isolated mitochondria (0.5 μg; measured by BCA assay) were loaded per assay.
Total DNA was extracted from the hearts or NRVMs using the QIAamp DNA Mini Kit (Qiagen, 51304). Mitochondrial DNA content was assessed by qPCR using primers specific for multiple mitochondrial-encoded genes (int-Cox1, mt-Nd2, int-Nd1, and mt-Nd5) and normalized to nuclear DNA content (a specific locus on mouse chromosome 6) using the ΔΔCt method.
Small pieces of tissue from the LV free wall were fixed by sequential immersion in triple aldehyde-DMSO, ferrocyanide-reduced osmium tetroxide, and acidified uranyl acetate; dehydrated in ascending concentrations of ethanol; passed through propylene oxide; and embedded in Poly/Bed resin (Polysciences Inc., 21844-1). Thin sections were sequentially stained with acidified uranyl acetate, followed by a modification of Sato's triple lead stain, and examined with a JEOL 1200EX electron microscope.

[4] = tested on: C57BL/6J mice, TAC pressure overload; test: Pressure overload model, transaortic constriction (TAC, 27 gauge), 6-week followup; format: in vivo; settings: for Corrected left ventricle mass (LVm): echocardiogram; for Ejection fraction (EF): SR9009 i.p. daily from 1 day after surgery
Protocol: as §1, with “Micewere injected at a dose of 100 mg/kg/day given i.p. once daily at zeitgeber time 8 (ZT8).” left out
as §2
For transthoracic echocardiography, mice were anesthetized with 1% inhalational isofluorane and imaged using the Vevo 770 High Resolution Imaging System (Visual Sonics Inc.) and the RMV-707B 30 MHz probe. Measurements were obtained from M-mode sampling, and integrated EKVimages were taken in the LV short axis at the mid-papillary level.
Short-axis heart sections from the midventricle were fixed in PBS/4% paraformaldehyde and embedded in paraffin. Fibrosis was visualized using Gomori's Trichrome staining kit (Sigma-Aldrich) with quantification of fibrotic area using ImagePro software. TUNEL staining was performed using the CardioTACS In Situ Apoptosis Detection kit (R&D Systems) according to manufacturer's instructions. Cryopreserved sections were used for myocardial capillary staining, which was performed in frozen LV sections using anti-PECAM-1 antibodies (1:200, BD Pharmingen, MEC13.3). The cardiomyocyte cross-sectional area was determined by staining with WGA Alexa 594 (Life Technologies) and analyzed using ImagePro software.
Given the strong effect of SR9009 in blocking the cellular remodeling in response to neurohormonal stress, we next tested the role of REV-ERBα activation in vivo using the classical pressure overload model. We started daily i.p. injection of SR9009 or Veh 1 day after transaortic constriction (TAC, 27 gauge) surgery and monitored cardiac hypertrophy and function by echocardiogram for 6 weeks. […] These findings were later confirmed by autopsy performed 6 weeks after TAC by heart weight and muscle fiber size analyses using wheat germ agglutinin staining on cryopreserved sections (FIGS. 3, B-E).

[5] = tested on: cardiac fibroblasts (CFs); test: TGβ1-induced inflammatory response of cultured cardiac fibroblasts (CFs); format: cell-based, rat; settings: cultured CFs pretreated with Veh or SR9009
Protocol: NRVMs and CFs were isolated from the hearts of 2-day-old Sprague-Dawley rat pups (Charles River Laboratories). The cells were differentially preplated for 1.5 hr. The nonattached cells were collected as NRVM and replated with 48 hr exposure to BrdU to suppress nonmyocytes. The attached cells were passaged 2-3 times to obtain CFs. NRVMs were initially plated in growth medium (DMEM supplemented with 10% FBS, 100 U/ml penicillin-streptomycin, and 2 mM L-glutamine) for 48 hr and maintained in serum-free media thereafter (DMEM supplemented with 1% insulin-transferrin-selenium liquid media supplement [Sigma-Aldrich, 13146], 100 U/ml penicillin-streptomycin). For hypertrophic stimulation, NRVM were incubated with SR9009 or GSK4112 versus DMSO for 24 hr, followed by stimulation with PE (100 μM) for the indicated time. CFs were cultured in DMEM supplemented with 10% FBS, 100 U/ml penicillin-streptomycin, and 2 mM L-glutamine and stimulated with TGβ1 (eBioscience).

[6] = mouse, in vivo
Protocol: Conscious tail-vein systolic blood pressure was measured using the BP2000 Blood Pressure Analysis System (Visitech Systems Inc.) as recommended by the manufacturer. To allow mice to adapt to the apparatus, we performed daily blood pressure measurements for 1 week prior to beginning experiments.
SR9009 is a drug given systemically and may potentially affect other systems, such as the vascular tone, although pressure overload itself is considered a relatively specific stress directly on the heart. To exclude the possibility that the improved cardiac function and reduced hypertrophy in vivo is associated with improvement in hemodynamics, we measured blood pressure using tail cuff and found there is no difference in mice receiving 4 weeks of Veh (mean arterial pressure [MAP]=106 mmHg) or SR9009 (MAP=115 mmHg, P=0.24).

CCOC(=O)N1CCC(CN(Cc2ccc(Cl)cc2)Cc2ccc([N+](=O)[O-])s2)C1 (stereo not shown) [SR9009]
ET-1-induced NPPB (BNP) expression [1]: protective effect | Ejection fraction (EF) ([2]; 6 weeks after 28-gauge TAC, Group II, SR9009 from 2 weeks after TAC (average EF 44% at start)): 43.9%±5% | Ejection fraction (EF) ([2]; after cross-over, additional 5 weeks, Group I received SR9009 (EF 29.1% at cross-over)): 29.8%±3.7% | PE-induced expression of cellular stress markers (qPCR of Nppa and Nppb) ([3]; NRVMs pretreated 24 hours, then PE 48 hours, SR9009 at 5 (unit uncertain), GSK4112 at 10 (unit uncertain)): effectively blocked | PE-induced cellular hypertrophy (cell size) ([3]; NRVMs pretreated 24 hours, then PE (100 μM) 48 hours, SR9009 at 5 (unit uncertain)): effectively blocked | PE repression of Pdk4 expression (RNA-Seq) ([3]; NRVMs, SR9009 given 24 hr prior to PE): ameliorated | Mitochondria morphology by electron microscopy (mouse heart mitochondria): no difference | Mitochondria number estimated by mtDNA to nuclear DNA ratio (mouse heart mitochondria): no difference | Oxidative phosphorylation (OXPHOS) measured by oxygen consumption rate (mouse heart mitochondria): no difference | Toxicity of the SR9009 dose ([4]; 10 mg/kg/day, daily i.p., mice): no apparent toxicity | Corrected left ventricle mass (LVm) ([4]; 4 weeks after 27-gauge TAC): 111.4 mg | Ejection fraction (EF) ([4]; 4 weeks after 27-gauge TAC): 61.4% | Corrected left ventricle mass (LVm) ([4]; 6 weeks after 27-gauge TAC): 114.8 mg | Ejection fraction (EF) ([4]; 6 weeks after 27-gauge TAC): 60.6% | Cell death, TUNEL positives per cross-section of the whole heart ([4]; 6 weeks after TAC): 13.4 positives per cross-section of the whole heart | Capillary density ([4]; after 6 weeks of TAC, Veh- vs SR9009-treated): no difference | Intramuscular fibrosis area ([4]; end of 6 weeks after TAC, Gomori Trichrome): 1.1% | TGβ1-induced inflammatory response [5]: no difference | Mean arterial pressure (MAP) [6]: 115 mmHg
